Measurements: ChEMBL document CHEMBL1201862, “PubChem BioAssay data set” (2004)
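Values below derive from 48-hour exposures of cells grown in 96-well plates, with endpoints linearly interpolated between the two concentrations bracketing the appropriate inhibition level. GI50 = concentration required for 50% inhibition of growth.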 Calls of active or inactive are those of the source. Rule as the data show it: active = GI50 up to about 1.1 µM and inactive = higher.

Columns and labels:
Test in all cases: DTP human tumour cell line panel, 48 h
[1] = system: A498
[2] = system: A549
[3] = system: CAKI-1
[4] = system: CCRF-CEM
[5] = system: COLO 205
[6] = system: DLD-1
[7] = system: DMS-273
[8] = system: EKVX
[9] = system: HCC 2998
[10] = system: HCT-116
[11] = system: HCT-15
[12] = system: HL-60
[13] = system: HOP-18
[14] = system: HOP-62
[15] = system: HOP-92
[16] = system: HT-29
[17] = system: IGROV-1
[18] = system: K562
[19] = system: KM-20L2
[20] = system: LOX IMVI
[21] = system: M19-MEL
[22] = system: MCF7
[23] = system: MOLT-4
[24] = system: Malme-3M
[25] = system: NCI-H226
[26] = system: NCI-H460
[27] = system: NCI-H522
[28] = system: NCI/ADR-RES
[29] = system: OVCAR-3
[30] = system: OVCAR-4
[31] = system: OVCAR-5
[32] = system: OVCAR-8
[33] = system: RPMI-8226
[34] = system: RXF 393
[35] = system: SF-268
[36] = system: SF-295
[37] = system: SF-539
[38] = system: SK-MEL-28
[39] = system: SK-MEL-2
[40] = system: SK-MEL-5
[41] = system: SK-OV-3
[42] = system: SN12C
[43] = system: SNB-19
[44] = system: SNB-75
[45] = system: SW-620
[46] = system: U-251
[47] = system: UACC-62
[48] = system: UO-31
[49] = system: XF498
[50] = system: 786-0
[51] = system: ACHN
[52] = system: BT-549
[53] = system: DMS-114
[54] = system: DU-145
[55] = system: Hs-578T
[56] = system: KM12
[57] = system: M14
[58] = system: MDA-MB-231
[59] = system: MDA-MB-435
[60] = system: MDA-N
[61] = system: NCI-H23
[62] = system: PC-3
[63] = system: SR
[64] = system: T47D
[65] = system: TK-10
[66] = system: UACC-257

Measured: GI50

COc1cc(C2c3cc4c(cc3[C@@H](Nc3ccc(N5CCOCC5)cc3)C3COC(=O)[C@H]23)OCO4)cc(OC)c1O (stereo not given in full)
0.993 µM: [11]
inactive: [5] 2 µM | [6] 1.55 µM | [8] 1.97 µM | [9] 1.99 µM | [10] 1.25 µM | [16] 1.65 µM | [17] 4.01 µM | [18] 1.39 µM | [19] 1.57 µM | [21] 1.71 µM | [24] 1.89 µM | [27] 1.41 µM | [28] 3.96 µM | [29] 2.86 µM | [30] 9.84 µM | [31] 1.82 µM | [32] 1.32 µM | [34] 2.3 µM | [38] 3.82 µM | [39] 2.46 µM | [44] 5.19 µM | [45] 1.5 µM | [48] 1.85 µM
active: [1] 1.01 µM | [2] 0.0659 µM | [3] 0.4 µM | [4] 0.136 µM | [7] 0.238 µM | [12] 0.0319 µM | [13] 0.977 µM | [14] 0.274 µM | [15] 0.773 µM | [20] 1.01 µM | [22] 0.177 µM | [23] 0.0207 µM | [25] 0.773 µM | [26] < 0.01 µM | [33] 0.223 µM | [35] 1.07 µM | [36] 0.296 µM | [37] 0.571 µM | [40] 1.04 µM | [41] 0.738 µM | [42] 0.388 µM | [43] 0.2 µM | [46] 0.214 µM | [47] 0.525 µM | [49] 0.392 µM

CCOC(=O)C(N)CSC(=O)NC (stereo not given)
inactive: [50] 73.6 µM | [1] 236 µM | [2] 327 µM | [51] 184 µM | [52] 121 µM | [3] 104 µM | [4] 49.3 µM | [5] 78.5 µM | [6] 130 µM | [53] 51.3 µM | [7] 83.6 µM | [54] 268 µM | [8] 269 µM | [9] 271 µM | [10] > 89.7 µM | [12] 74 µM | [13] 357 µM | [14] 154 µM | [15] 98.4 µM | [16] 78.7 µM | [55] 204 µM | [17] 155 µM | [18] 45.3 µM | [19] 171 µM | [56] 175 µM | [20] 40.4 µM | [57] 67.9 µM | [21] 64.6 µM | [22] 93.5 µM | [58] 99.1 µM | [59] 45 µM | [60] 39.8 µM | [23] 55.1 µM | [24] 117 µM | [25] 247 µM | [61] 112 µM | [26] 92 µM | [27] 102 µM | [28] 89.9 µM | [29] 96.6 µM | [30] 219 µM | [31] 350 µM | [32] 97.7 µM | [62] 132 µM | [33] 20.1 µM | [34] 105 µM | [35] 115 µM | [36] 258 µM | [37] > 83.6 µM | [38] 136 µM | [39] 63.2 µM | [40] 116 µM | [41] 286 µM | [42] 71.6 µM | [43] 251 µM | [44] 243 µM | [63] 45.1 µM | [45] 80.4 µM | [64] 133 µM | [65] 247 µM | [46] 121 µM | [66] 208 µM | [47] 81.8 µM | [48] 259 µM | [49] 104 µM
63 µM: [11]
